Values after ≈ are worked out from the molar mass of the structure shown. Read-outs that look alike come from different tables or passages of the source.
Tests used:
[1] = tested on: E. coli; test: MIC by Steers' agar dilution method; type: cell-based; conditions: Escherichia coli, read-out: MIC
[2] = tested on: Enterob. cloacae; test: MIC by Steers' agar dilution method
[3] = tested on: K. pneumoniae A9977; test: Standard experimental infection in mice; type: in vivo; conditions: for ED50: Klebsiella pneumoniae, A9977, read-out: PD50
[4] = tested on: Pr. mirabilis; test: MIC by Steers' agar dilution method; conditions: Proteus mirabilis
[5] = tested on: S. typhimurium; test: MIC by Steers' agar dilution method; conditions: Salmonella enterica
[6] = tested on: P. vulgaris A9436 (Pv-1); test: Standard experimental infection (single sc treatment); conditions: for No. of survivors/No. tested: Run C-808, single sc

Molecule `O=C(O)Cn1nc2ccc(SCC3=C(C(=O)O)N4C(=O)C(NC(=O)[C@H](O)c5ccccc5)[C@H]4SC3)nn2c1=O` (stereo partly drawn) [BB-S488, 7-(D-Mandelamido)-3-(2-carboxymethyl-2,3-dihydro-s-triazolo[4,3-b]pyridazin-3-on-6-ylthiomethyl)-3-cephem-4-carboxylic Acid] has an MIC ([1]; Ec-47 A15170, MHA, Table 3) of 100 µg/mL (≈ 175 µM), an MIC ([1]; Ec-49 A20107, MHA, Table 3) of 0.4 µg/mL (≈ 0.699 µM) and an MIC ([1]; Ec-50 A20109, MHA, Table 3) of 0.2 µg/mL (≈ 0.349 µM). The MIC ([1]; Ec-51 A20343 (β-lactamase), HIA, Table 4) was > 100 µg/mL, the MIC ([1]; Ec-51 A20343 (β-lactamase), MHA, Table 4) was > 100 µg/mL and the MIC ([1]; Ec-51 A20343 (β-lactamase), NA, Table 4) was 50 µg/mL (≈ 87.3 µM). It also gave an MIC ([1]; Ec-51 A20343, MHA, Table 3) of 50 µg/mL (≈ 87.3 µM), an MIC ([1]; Ec-56 A20365, MHA, Table 3) of 25 µg/mL (≈ 43.7 µM) and an MIC ([1]; Ec-58 A9675, MHA, Table 3) of 0.4 µg/mL (≈ 0.699 µM). The MIC ([1]; Ec-59 A20766, MHA, Table 3) was 0.2 µg/mL (≈ 0.349 µM), the MIC ([1]; Ec-62 A20895, MHA, Table 3) was 0.4 µg/mL (≈ 0.699 µM) and the MIC ([1]; Juhl A15119, MHA, Table 1) was 0.2 µg/mL (≈ 0.349 µM). For the same molecule, the MIC ([1]; Juhl, MHA, Example 10) was 0.2 µg/mL (≈ 0.349 µM), the MIC ([1]; NIHJ, MHA, Example 10) was 0.2 µg/mL (≈ 0.349 µM) and the MIC ([1]; NIHJ, MHA, Table 1) was 0.025 µg/mL (≈ 0.0437 µM). The MIC ([1]; strain not named (1st of 3), MHA, Example 10) was 0.1 µg/mL (≈ 0.175 µM), the MIC ([1]; strain not named (2nd of 3), MHA, Example 10) was 0.05 µg/mL (≈ 0.0873 µM) and the MIC ([1]; strain not named (3rd of 3), MHA, Example 10) was 3.1 µg/mL (≈ 5.41 µM). For the same molecule, the MIC ([2]; A9656, MHA, Table 1) was 3.1 µg/mL (≈ 5.41 µM), the MIC ([2]; El-1 A9656, HIA, Table 4) was 6.3 µg/mL (≈ 11 µM) and the MIC ([2]; El-1 A9656, MHA, Table 3) was 3.1 µg/mL (≈ 5.41 µM). For the same molecule, the MIC ([2]; El-1 A9656, MHA, Table 4) was 3.1 µg/mL (≈ 5.41 µM), the MIC ([2]; El-1 A9656, NA, Table 4) was 12.5 µg/mL (≈ 21.8 µM) and the MIC ([2]; El-2 A20364 (β-lactamase), HIA, Table 4) was 6.3 µg/mL (≈ 11 µM). The MIC ([2]; El-2 A20364 (β-lactamase), MHA, Table 4) was 3.1 µg/mL (≈ 5.41 µM), the MIC ([2]; El-2 A20364 (β-lactamase), NA, Table 4) was 12.5 µg/mL (≈ 21.8 µM) and the MIC ([2]; El-2 A20364, MHA, Table 3) was 3.1 µg/mL (≈ 5.41 µM). For the same molecule, the MIC ([2]; El-4 A20650, MHA, Table 3) was 1.6 µg/mL (≈ 2.79 µM), the MIC ([2]; El-6 A9657, MHA, Table 3) was 0.8 µg/mL (≈ 1.4 µM) and the MIC ([2]; El-7 A9659, MHA, Table 3) was 1.6 µg/mL (≈ 2.79 µM). For the same molecule, the MIC ([2]; El-8 A9655, MHA, Table 3) was 1.6 µg/mL (≈ 2.79 µM), the MIC ([2]; El-9 A20021, MHA, Table 3) was > 100 µg/mL and the MIC ([2]; El-11 A20344 (β-lactamase), HIA, Table 4) was > 100 µg/mL. The MIC ([2]; El-11 A20344 (β-lactamase), MHA, Table 4) was > 100 µg/mL, the MIC ([2]; El-11 A20344 (β-lactamase), NA, Table 4) was > 100 µg/mL and the MIC ([2]; El-11 A20344, MHA, Table 3) was > 100 µg/mL. The MIC ([2]; El-12 A21006, MHA, Table 3) was 1.6 µg/mL (≈ 2.79 µM), the MIC ([2]; El-14 A20953, MHA, Table 3) was 0.8 µg/mL (≈ 1.4 µM) and the MIC ([2]; MHA, Example 10) was 3.1 µg/mL (≈ 5.41 µM). For the same molecule, the “No. of survivors/No. tested” value ([3]; 0.1 mg./kg., Table 6) was 0/5, the “No. of survivors/No. tested” value ([3]; 0.4 mg./kg., Table 6) was 4/5 and the “No. of survivors/No. tested” value ([3]; 1.6 mg./kg., Table 6) was 5/5. For the same molecule, the “No. of survivors/No. tested” value ([3]; 6.3 mg./kg., Table 6) was 5/5, the “No. of survivors/No. tested” value ([3]; 25 mg./kg., Table 6) was 5/5 and the ED50 ([3]; Run C-805, 3×10^3 LD50, single sc) was 0.26 mg/kg. The ED50 ([3]; Table 6) was 0.26 mg/kg, the “No. of survivors/No. tested” value ([3]; Run C-805, 3×10^3 LD50, single sc, 0.1 mg./kg.) was 0/5 and the “No. of survivors/No. tested” value ([3]; Run C-805, 3×10^3 LD50, single sc, 0.4 mg./kg.) was 4/5. The “No. of survivors/No. tested” value ([3]; Run C-805, 3×10^3 LD50, single sc, 1.6 mg./kg.) was 5/5, the “No. of survivors/No. tested” value ([3]; Run C-805, 3×10^3 LD50, single sc, 6.3 mg./kg.) was 5/5 and the “No. of survivors/No. tested” value ([3]; Run C-805, 3×10^3 LD50, single sc, 25 mg./kg.) was 5/5. For the same molecule, the MIC ([4]; A9554, MHA, Table 1) was 0.05 µg/mL (≈ 0.0873 µM), the MIC ([4]; A9900, MHA, Table 1) was 0.1 µg/mL (≈ 0.175 µM) and the MIC ([4]; Pm-1 A9554, HIA, Table 4) was 0.1 µg/mL (≈ 0.175 µM). The MIC ([4]; Pm-1 A9554, MHA, Table 3) was 0.1 µg/mL (≈ 0.175 µM), the MIC ([4]; Pm-1 A9554, MHA, Table 4) was 0.1 µg/mL (≈ 0.175 µM) and the MIC ([4]; Pm-1 A9554, NA, Table 4) was 0.1 µg/mL (≈ 0.175 µM). It also gave an MIC ([4]; Pm-2 A9900, HIA, Table 4) of 0.2 µg/mL (≈ 0.349 µM), an MIC ([4]; Pm-2 A9900, MHA, Table 3) of 0.2 µg/mL (≈ 0.349 µM) and an MIC ([4]; Pm-2 A9900, MHA, Table 4) of 0.2 µg/mL (≈ 0.349 µM). It also gave an MIC ([4]; Pm-2 A9900, NA, Table 4) of 0.1 µg/mL (≈ 0.175 µM), an MIC ([4]; Pm-3 A20119, MHA, Table 3) of 0.4 µg/mL (≈ 0.699 µM) and an MIC ([4]; Pm-4 A20454, MHA, Table 3) of 0.2 µg/mL (≈ 0.349 µM). The MIC ([4]; Pm-5 A9702, MHA, Table 3) was 0.1 µg/mL (≈ 0.175 µM), the MIC ([4]; Pm-6 A21222, MHA, Table 3) was 1.6 µg/mL (≈ 2.79 µM) and the MIC ([4]; strain not given (1st of 2), MHA, Example 10) was 0.05 µg/mL (≈ 0.0873 µM). For the same molecule, the MIC ([4]; strain not named (2nd of 2), MHA, Example 10) was 0.05 µg/mL (≈ 0.0873 µM), the MIC [5] was 0.1 µg/mL (≈ 0.175 µM) and the ED50 ([6]; Proteus vulgaris, in Mus musculus, sc, read-out: PD50) was 1.1 mg/kg. For the same molecule, the “No. of survivors/No. tested” value ([6]; 0.4 mg./kg.) was 1/5, the “No. of survivors/No. tested” value ([6]; 1.6 mg./kg.) was 3/5 and the “No. of survivors/No. tested” value ([6]; 6.3 mg./kg.) was 5/5. For the same molecule, the “No. of survivors/No. tested” value ([6]; 25 mg./kg.) was 5/5.

Reference: US4112228A, “7-(D-α-Hydroxy-2-arylacetamido)-3-(2-carboxyalkyl-2,3-dihydro-s-tri azolo-[4,3-b]pyridazin-3-on-6-ylthiomethyl)-3-cephem-4-carboxylic acids and derivatives” (priority 1977, dated 1978)
